Laboratory results taken from patent US6737383B1, “Herbicidal oxadiazolidines” (priority 1999, dated 2004).

Assays:
rice = assay: Test B flood test rice; type: in vivo, Oryza sativa
Outline: (§1)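 Each value is a visual injury score relative to controls, with 10 meaning complete control and 0 no effect. Evaluation took place twelve to sixteen days after the 2-leaf-stage plants were treated and kept in the greenhouse.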

blackgrass = assay: Test B pre/postemergence blackgrass; type: in vivo, Alopecurus myosuroides
Outline: (§2)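 Herbicidal effect was estimated by eye on a ten-point control scale after plants spent twelve to sixteen days in a greenhouse following soil or foliar treatment. Foliar sprays targeted plants at one to four leaves; all doses were formulated in a non-phytotoxic solvent with surfactant.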

rape = assay: Test B pre/postemergence rape; type: in vivo, Brassica napus
Outline: as §2

bamyardgrass = assay: Test B flood test barnyardgrass; type: in vivo, Echinochloa crus-galli
Outline: as §1

giant foxtail = assay: Test B pre/postemergence giant foxtail; type: in vivo, Setaria faberii
Outline: as §2

sugar beet = assay: Test B pre/postemergence sugar beet; type: in vivo, Beta vulgaris
Outline: as §2

velvetleaf = assay: Test B pre/postemergence velvetleaf; type: in vivo, Abutilon theophrasti
Outline: as §2

wild oat = assay: Test B pre/postemergence wild oat; type: in vivo, Avena fatua
Outline: as §2

smallflower flatsedge = assay: Test B flood test smallflower flatsedge; type: in vivo, Cyperus difformis
Outline: as §1

crabgrass = assay: Test B pre/postemergence crabgrass; type: in vivo, Digitaria sanguinalis
Outline: as §2

morningglory = assay: Test B pre/postemergence morningglory; type: in vivo, Ipomoea hederacea
Outline: as §2

corn = assay: Test B pre/postemergence corn; type: in vivo, Zea mays
Outline: as §2

bedstraw = assay: Test B pre/postemergence bedstraw; type: in vivo, Galium aparine
Outline: as §2

pigweed = assay: Test B pre/postemergence pigweed; type: in vivo, Amaranthus retroflexus
Outline: as §2

surinam grass = assay: Test B pre/postemergence surinam grass; type: in vivo, Brachiaria decumbens
Outline: as §2

cocklebur = assay: Test B pre/postemergence cocklebur; type: in vivo, Xanthium strumarium
Outline: as §2

[1] = Rate 62 g/ha, flood test species, Pre-emergence, visual evaluation after twelve to sixteen days
[2] = Rate 125 g/ha, under heading Pre-emergence, flood test species, visual evaluation after twelve to sixteen days
[3] = Rate 250 g/ha, Pre-emergence (flood test species), scale 0 to 10, 0 is no effect, 10 is complete control
[4] = Rate 500 g/ha, Pre-emergence section of Table B, 0 to 10 scale (0 no effect, 10 complete control)
[5] = Postemergence, Rate 62 g/ha, scale 0 to 10, 0 is no effect, 10 is complete control
[6] = Postemergence, Rate 125 g/ha, scale of 0 to 10 where 0 is no effect and 10 is complete control
[7] = Postemergence, Rate 250 g/ha, scale of 0 to 10, 0 is no effect, 10 is complete control
[8] = Postemergence, Rate 500 g/ha, scale of 0 to 10 where 0 is no effect and 10 is complete control
[9] = Preemergence, Rate 62 g/ha, scale 0 to 10 (0 no effect, 10 complete control)
[10] = Preemergence, Rate 125 g/ha, scale of 0 to 10 where 0 is no effect and 10 is complete control
[11] = Preemergence, Rate 250 g/ha, scale 0 to 10 (0 no effect, 10 complete control)
[12] = Preemergence, Rate 500 g/ha, scale of 0 to 10 where 0 is no effect and 10 is complete control

CCOC(=O)CC(C(=O)OCC)n1c(=O)on(C(=O)N(c2ccc(F)cc2)C(C)C)c1=O (centres unmarked) [Compound 615]
Plant response rating, Rice (0 to 10 scale, 0 is no effect, 10 is complete control) (rice; [1]): 0
Rice plant response rating (0 to 10 scale, 0 is no effect, 10 is complete control) (rice; [2]): 0
Rice plant response rating (rice; [3]): 0
Rice plant response rating (rice; [4]): 0
Plant response rating, Blackgrass (blackgrass; [5]): 0
Plant response rating, Blackgrass (blackgrass; [6]): 0
Blackgrass plant response rating (blackgrass; [7]): 0
Plant response rating, Blackgrass (blackgrass; [8]): 0
Blackgrass plant response rating (blackgrass; [9]): 0
Blackgrass plant response rating (blackgrass; [10]): 0
Plant response rating, Blackgrass (blackgrass; [11]): 0
Blackgrass plant response rating (blackgrass; [12]): 4
Plant response rating, Rape (rape; [5]): 0
Plant response rating, Rape (rape; [6]): 0
Rape plant response rating (rape; [7]): 0
Plant response rating, Rape (rape; [8]): 0
Rape plant response rating (rape; [9]): 0
Rape plant response rating (rape; [10]): 0
Plant response rating, Rape (rape; [11]): 0
Plant response rating, Rape (rape; [12]): 0
Plant response rating, Barnyardgrass (0 to 10 scale, 0 is no effect, 10 is complete control) (bamyardgrass; [1]): 0
Barnyardgrass plant response rating (0 to 10 scale, 0 is no effect, 10 is complete control) (bamyardgrass; [2]): 0
Barnyardgrass plant response rating (bamyardgrass; [3]): 0
Barnyardgrass plant response rating (bamyardgrass; [4]): 0
Plant response rating, Giant foxtail (giant foxtail; [5]): 0
Plant response rating, Giant foxtail (giant foxtail; [6]): 0
Giant foxtail plant response rating (giant foxtail; [7]): 6
Plant response rating, Giant foxtail (giant foxtail; [8]): 6
Giant foxtail plant response rating (giant foxtail; [9]): 0
Giant foxtail plant response rating (giant foxtail; [10]): 0
Plant response rating, Giant foxtail (giant foxtail; [11]): 0
Plant response rating, Giant foxtail (giant foxtail; [12]): 7
Plant response rating, Sugarbeets (sugar beet; [5]): 0
Plant response rating, Sugarbeets (sugar beet; [6]): 0
Sugarbeets plant response rating (sugar beet; [7]): 0
Plant response rating, Sugarbeets (sugar beet; [8]): 0
Sugarbeets plant response rating (sugar beet; [9]): 0
Sugarbeets plant response rating (sugar beet; [10]): 0
Plant response rating, Sugarbeets (sugar beet; [11]): 0
Plant response rating, Sugarbeets (sugar beet; [12]): 6
Plant response rating, Velvetleaf (velvetleaf; [5]): 0
Plant response rating, Velvetleaf (velvetleaf; [6]): 0
Velvetleaf plant response rating (velvetleaf; [7]): 0
Plant response rating, Velvetleaf (velvetleaf; [8]): 0
Velvetleaf plant response rating (velvetleaf; [9]): 0
Velvetleaf plant response rating (velvetleaf; [10]): 0
Plant response rating, Velvetleaf (velvetleaf; [11]): 0
Plant response rating, Velvetleaf (velvetleaf; [12]): 0
Plant response rating, Wild oats (wild oat; [5]): 0
Plant response rating, Wild oats (wild oat; [6]): 0
Wild oats plant response rating (wild oat; [7]): 0
Plant response rating, Wild oats (wild oat; [8]): 0
Wild oats plant response rating (wild oat; [9]): 0
Wild oats plant response rating (wild oat; [10]): 0
Plant response rating, Wild oats (wild oat; [11]): 0
Plant response rating, Wild oats (wild oat; [12]): 0
Plant response rating, S. Flatsedge (0 to 10 scale, 0 is no effect, 10 is complete control) (smallflower flatsedge; [1]): 0
S. Flatsedge plant response rating (0 to 10 scale, 0 is no effect, 10 is complete control) (smallflower flatsedge; [2]): 0
S. Flatsedge plant response rating (smallflower flatsedge; [3]): 0
S. Flatsedge plant response rating (smallflower flatsedge; [4]): 0
Plant response rating, Crabgrass (crabgrass; [5]): 0
Plant response rating, Crabgrass (crabgrass; [6]): 0
Crabgrass plant response rating (crabgrass; [7]): 4
Crabgrass plant response rating (crabgrass; [9]): 0
Crabgrass plant response rating (crabgrass; [10]): 0
Plant response rating, Crabgrass (crabgrass; [11]): 0
Plant response rating, Crabgrass (crabgrass; [12]): 0
Plant response rating, Morningglory (morningglory; [5]): 0
Plant response rating, Morningglory (morningglory; [6]): 1
Morningglory plant response rating (morningglory; [7]): 1
Plant response rating, Morningglory (morningglory; [8]): 1
Morningglory plant response rating (morningglory; [9]): 0
Morningglory plant response rating (morningglory; [10]): 0
Plant response rating, Morningglory (morningglory; [11]): 0
Plant response rating, Morningglory (morningglory; [12]): 0
Plant response rating, Corn (corn; [5]): 0
Plant response rating, Corn (corn; [6]): 0
Corn plant response rating (corn; [7]): 0
Plant response rating, Corn (corn; [8]): 0
Corn plant response rating (corn; [9]): 0
Corn plant response rating (corn; [10]): 0
Plant response rating, Corn (corn; [11]): 0
Plant response rating, Corn (corn; [12]): 0
Plant response rating, Bedstraw (bedstraw; [5]): 0
Plant response rating, Bedstraw (bedstraw; [6]): 0
Bedstraw plant response rating (bedstraw; [9]): 0
Bedstraw plant response rating (bedstraw; [10]): 0
Plant response rating, Bedstraw (bedstraw; [11]): 0
Bedstraw plant response rating (bedstraw; [12]): 0
Plant response rating, Redroot pigweed (pigweed; [5]): 0
Plant response rating, Redroot pigweed (pigweed; [6]): 0
Redroot pigweed plant response rating (pigweed; [7]): 0
Plant response rating, Redroot pigweed (pigweed; [8]): 0
Redroot pigweed plant response rating (pigweed; [9]): 0
Redroot pigweed plant response rating (pigweed; [10]): 0
Plant response rating, Redroot pigweed (pigweed; [11]): 0
Plant response rating, Redroot pigweed (pigweed; [12]): 4
Plant response rating, B. signalgrass (surinam grass; [5]): 0
Plant response rating, B. signalgrass (surinam grass; [6]): 0
B. signalgrass plant response rating (surinam grass; [7]): 0
Plant response rating, B. signalgrass (surinam grass; [8]): 0
B. signalgrass plant response rating (surinam grass; [9]): 0
B. signalgrass plant response rating (surinam grass; [10]): 0
Plant response rating, B. signalgrass (surinam grass; [11]): 0
B. signalgrass plant response rating (surinam grass; [12]): 0
Plant response rating, Cocklebur (cocklebur; [5]): 0
Plant response rating, Cocklebur (cocklebur; [6]): 0
Cocklebur plant response rating (cocklebur; [7]): 0
Plant response rating, Cocklebur (cocklebur; [8]): 0
Cocklebur plant response rating (cocklebur; [9]): 0
Cocklebur plant response rating (cocklebur; [10]): 0
Plant response rating, Cocklebur (cocklebur; [11]): 0
Plant response rating, Cocklebur (cocklebur; [12]): 0
